Converted amounts (≈) assume the structure as drawn.
Assays:
[1] = tested on: HT-29 cell line; design: method as in doi:10.1007/s00044-011-9549-9; details: read-out: IC50 HT-29 (literature); cited from earlier work
[2] = tested on: canine malignant histiocytic cell line (DH82); design: method as in PMID 28738308; details: read-out: IC50 DH82 proliferation (literature); cited from earlier work
[3] = tested on: LS180; assay: SRB antiproliferative assay, LS180; assay type: cell-based, human; details: 1–100 µg·mL^−1, ND = not detected in the tested concentration range
Description: (§1) Anticancer activity was evaluated using the sulforhodamine B assay (SRB) on four different human colon cancer cell lines: HT-29, LS180, LoVo and LoVo/DX and green monkey kidney fibroblasts COS7 (ATCC, Manassas, VA, USA). Cell lines HT-29 and COS7 were cultured in α-MEM medium (IIET PAS, Wrocław, Poland), LS180 in OptiMEM medium (IIET PAS), LoVo and LoVo/DX in mixture of α-MEM and OptiMEM medium (1:1 (v:v)). Each culture medium was supplemented with 10% fetal bovine serum, 2 mM glutamine, 100 μg·mL^−1 penicillin, 100 μg·mL^−1 streptomycin and 0.25 μg·mL^−1 amphotericin (all supplements purchased from Gibco (Paisley, UK). Cells were incubated at 37 °C, 5% CO2 in HeraCELL 150i incubator (Thermo Fisher Scientific, Waltham, MA, USA).
(§2) For the SRB assay, cells were seeded onto 96-well plates (Sarstedt, Nümbrecht, Germany) at a density of 5·10^3/well and cultured overnight as described above. Then, the growth medium was gently removed and replaced with fresh medium, supplemented with aminochalcone derivatives in the concentration ranging from 1 µg·mL^−1 to 100 µg·mL^−1. All stock solutions were prepared in DMSO at a concentration of 10 mg·mL^−1. Cells were incubated for 48 h and then the SRB assay was performed as described previously. Each experiment was performed in quadruplicate. The final results were reported as the IC50 values calculated for three independent experiments. Cisplatin (Acros Organics, Waltham, MA, USA) and doxorubicin (Fisher BioReagents, Waltham, MA, USA) were used as positive controls of the test.

[4] = tested on: LoVo; assay: SRB antiproliferative assay, LoVo; assay type: cell-based, human; details: 48 h, 1–100 µg·mL^−1, ND = not detected in the tested concentration range
Description: as §1, §2

[5] = tested on: HT-29; assay: SRB antiproliferative assay, HT-29; assay type: cell-based, human; details: SRB, 48 h, 1–100 µg·mL^−1, ND = not detected in the tested concentration range
Description: as §1, §2

[6] = tested on: green monkey kidney fibroblasts COS7; assay: SRB assay, normal fibroblasts COS7; assay type: cell-based; details: 48 h, normal cell line, ND = not detected in the tested concentration range
Description: as §1, §2

[7] = tested on: LoVo/DX; assay: SRB antiproliferative assay, LoVo/DX; assay type: cell-based, human; details: 48 h, 1–100 µg·mL^−1, ND = not detected in the tested concentration range
Description: as §1, §2

[8] = tested on: Trichophyton rubrum; design: method as in doi:10.1007/s10600-018-2281-7; details: cited from earlier work
[9] = tested on: Escherichia coli ATCC10536; assay: Microbial growth curve screening, E. coli; assay type: cell-based; details: 0.1% (w/v), OD at 560 nm, control 1.61
Description: (§3) The antimicrobial screening tests were performed on two strains of bacteria: E. coli ATCC10536 and S. aureus DSM799, strain of yeast C. albicans DSM1386 and three strains of fungi: F. linii KB-F1, A. alternata CBS1526 and A. niger DSM1957. All microorganisms were obtained from the collection of the Faculty of Biotechnology and Food Microbiology, Wrocław University of Environmental and Life Sciences. The bacteria were cultured in nutrient broth (Biocorp, Warsaw, Poland), yeast and fungi in YM medium (3 g yeast extract, 3 g malt extract, 5 g bacteriological peptone and 10 g of glucose dissolved in 1 L of distilled water). The tests were carried out in 100-well microtiter plates. To each well 280 μL of culture medium, 10 μL of microorganism suspension and 10 μL of aminochalcone (1–18) dissolved in dimethyl sulfoxide (3% (w/v)) were added. The final concentration of the tested compound (1–18) was 0.1% (w/v). Each experiment were performed in 3 replications. The optical density of the cell suspension was measured on Bioscreen C (Automated Growth Curve Analysis System Lab System, Vantaa, Finland) at 560 nm automatically, at regular intervals of 30 min for 2–3 days. Cell cultures were maintained at 28 °C on a continuous shaker. To prepare the growth curves for each strain, the mean values of the absorbance in a function of time were used. The resulting antimicrobial activity was expressed as the increase of optical density (ΔOD) and was compared to that of the control cultures in the medium supplemented with dimethyl sulfoxide and also with reference substances: oxytetracycline (against bacteria), cycloheximide (against yeast) and nystatin (against fungi) (Sigma Aldrich).

[10] = tested on: Aspergillus niger DSM1957; assay: Microbial growth curve screening, A. niger; assay type: cell-based; details: 0.1% (w/v)
Description: as §3

[11] = tested on: Fusarium linii KB-F1; assay: MIC evaluation (broth method), F. linii; assay type: cell-based; details: Fusarium, KBF1, 48–72 h, read-out: Minimal inhibitory concentration F. linii
Description: (§4) Sterile 96-well microtiter plates (Sarstedt) with nutrient broth (for bacteria) (Biocorp) or YM medium (for yeast and filamentous fungi) were inoculated with a standardized cell suspension of bacteria and yeast or fungal spores of 10^5 cell·mL^−1, and supplemented with aminochalcones dissolved in DMSO. […] All analysis were conducted in triplicates. The plates were incubated at 30 °C (bacteria and yeast) or 25 °C (filamentous fungi) for 48–72 h. The results were measured with the Spark® Multimode Microplate Reader (Tecan, Männedorf, Switzerland) at a 560 nm wavelength. The minimal inhibitory concentration was defined as the lowest concentration of a tested compound that completely restricted the growth of the microorganism. In order to verify the obtained results, microbial cultures subjected to each concentration of aminochalcone were inoculated onto nutrient agar or YM plates and incubated as described above. The lack of growth on agar plate was a confirmation of the MIC of the tested compound. The resulting MIC values were compared with the reference substances: oxytetracycline (against bacteria), cycloheximide (against yeast) and nystatin (against fungi) (Sigma Aldrich).

[12] = tested on: Escherichia coli ATCC10536; assay: MIC evaluation (broth method), E. coli; assay type: cell-based; details: 48–72 h, read-out: Minimal inhibitory concentration E. coli
Description: as §4

[13] = tested on: Alternaria alternata CBS1526; assay: Microbial growth curve screening, A. alternata; assay type: cell-based; details: 0.1% (w/v)
Description: as §3

[14] = tested on: Staphylococcus aureus DSM799; assay: Microbial growth curve screening, S. aureus; assay type: cell-based; details: 0.1% (w/v)
Description: as §3

[15] = SRB assay, normal fibroblasts COS7; assay type: cell-based, green monkey; details: green monkey, COS7 kidney fibroblasts (normal cell line), ND = not detected in the tested concentration range
Description: as §1, §2

[16] = tested on: Candida albicans DSM1386; assay: MIC evaluation (broth method), C. albicans; assay type: cell-based; details: DSM1386, broth method, 48–72 h, read-out: Minimal inhibitory concentration C. albicans
Description: as §4

[17] = tested on: Fusarium linii KB-F1; assay: Microbial growth curve screening, F. linii; assay type: cell-based; details: 0.1% (w/v), OD at 560 nm, control 1.95
Description: as §3

Nc1ccc(C(=O)/C=C/c2ccccc2Cl)cc1 [4′-amino-2-chlorochalcone]
IC50 [1]: 26.2 µM

Nc1ccc(C(=O)/C=C/c2ccc(Cl)cc2)cc1 [4′-amino-4-chlorochalcone]
IC50 [2]: 31.4 µM

Cc1ccc(/C=C/C(=O)c2ccccc2N)cc1 [2′-amino-4-methylchalcone]
IC50 [2]: 38.2 µM

N.N.[Cl][Pt][Cl] [Compound 19, Cisplatin, reference compound]
IC50 LS180 ([3]; 48 h): 1.49 ± 0.13 µg/mL
IC50 LoVo [4]: 2.09 ± 0.12 µg/mL
IC50 HT-29 [5]: 16.73 ± 0.58 µg/mL
IC50 COS7 [6]: 3.86 ± 0.62 µg/mL
IC50 LoVo/DX [7]: 2.03 ± 0.17 µg/mL

Nc1ccccc1C(=O)/C=C/c1ccc([N+](=O)[O-])cc1 [Compound 10, 2′-Amino-4-nitrochalcone]
MIC80 Trichophyton rubrum (literature) [8]: 0.5 µg/mL (≈ 1.86 µM)
IC50 ([3]; Homo sapiens, LS180, 48 h): 2 ± 0.35 µg/mL (≈ 7.46 µM)
IC50 ([4]; Homo sapiens, LoVo): 1.11 ± 0.07 µg/mL (≈ 4.14 µM)
IC50 ([5]; Homo sapiens, HT-29): 3.24 ± 0.27 µg/mL (≈ 12.1 µM)
∆OD E. coli [9]: 0.0
∆OD A. niger ([10]; OD at 560 nm, control 2.14): 0.79
Lag-phase A. niger ([10]; control 11.0 h): 23.0 h
melting point: 114 to 117 °C
MIC [11]: 0.5 µg/mL (≈ 1.86 µM)
MIC [12]: 0.25 µg/mL (≈ 0.932 µM)
∆OD A. alternata ([13]; OD at 560 nm, control 1.86): 0.20
Lag-phase A. alternata ([13]; control 16.5 h): 0.5 h
∆OD S. aureus ([14]; OD at 560 nm, control 1.67): 0.15
Lag-phase S. aureus ([14]; control 2.5 h): 11.5 h
IC50 at 48 h [15]: 1.79 ± 0.14 µg/mL (≈ 6.67 µM)
MIC [16]: 0.5 µg/mL (≈ 1.86 µM)
IC50 ([7]; Homo sapiens, LoVo/DX): 0.96 ± 0.12 µg/mL (≈ 3.58 µM)
∆OD F. linii [17]: 0.0

From PMC6891756, “Synthesis and Biological Evaluation of Novel Aminochalcones as Potential Anticancer and Antimicrobial Agents” (Molecules, 2019)
